From PubChem BioAssay (NCI) come the findings set out here.

What all share (assay): NCI-60 cell line screen, 48 h
Test [1] concerns BT-549 breast.
Test [2] concerns HCC-2998 colon.
In test [3] the test system is HCT-15 colon.
For test [4], the system named is HT29 colon.
Test [5] relates to M14 melanoma.
Test [6] has as its system NCI-H522 lung.
For test [7], the system named is OVCAR-3 ovarian.
For test [8], the system named is SF-295 CNS.
In test [9] the test system is SNB-75 CNS.
Test [10] concerns TK-10 renal.

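Interpolation was linear, between the two tested concentrations surrounding the appropriate level; five concentrations were tested over 48 hours in 96-well plates. The concentration for 50% growth inhibition is given as GI50. The concentration for full growth arrest is given as TGI.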

On to `CCN(CC)CCCCNc1ncc2cc(-c3cc(OC)cc(OC)c3)c(NC(=O)NC(C)(C)C)nc2n1`, for which the GI50 was 2.15 µM in test [1]; 12.7 µM in test [2]; 3.63 µM in [3]; 3.31 µM in test [4]; 3.1 µM in [5]; 6.45 µM in [6]. Also, the GI50 in test [7] was 11.9 µM; in [8], 3.59 µM; in test [9], 0.372 µM; in test [10], 6.77 µM. The TGI in [1] is 18 µM; in [2] it was 26 µM; in test [3] it was 17.5 µM; in [4], 13.9 µM; in test [5] it was 9.65 µM; in test [6], 18.4 µM. The TGI in test [7] was 25 µM; in test [8], 10.3 µM; in test [9], 13.1 µM; in test [10], 21.1 µM.
For `Cc1[nH]nc2ccc3nc(-c4ccc5[nH]ncc5c4)c4c(c3c12)CCCC4`, the GI50 in [1] was 1.1 µM; in [2], 2.19 µM; in test [3] it was 0.638 µM; in [4] it was 1.51 µM; in test [5] it was 0.604 µM; in test [6], 0.446 µM. The GI50 in [7] is 2.07 µM; in [8] it was 2.74 µM; in test [9], 1.52 µM; in test [10], 1.12 µM. Also, the TGI in test [1] came to 8.8 µM; in test [2], 15.1 µM; in test [3] it was 12.6 µM; in [4], 12.5 µM; in test [5], 13.3 µM; in [6], 6.01 µM. Further, the TGI stood at 10.6 µM in [7], 10.5 µM in test [8], 7.28 µM in test [9] and 20 µM in test [10].
Take `N#Cc1c(N)nc(NCc2ccccc2)c(C#N)c1-c1ccccc1Cl`: the GI50 was 16.7 µM in test [1]; over 100 µM in [2]; over 100 µM in test [3]; 73.4 µM in test [4]; 23.2 µM in [5]; 12.6 µM in test [6]. Also, the GI50 in [7] was 18.4 µM; in test [8], 12.6 µM; in test [9] it was 10.3 µM; in [10] it was 22.3 µM. Moreover, the TGI in test [1] was 53.9 µM; in [2] it was over 100 µM; in test [3], over 100 µM; in test [4] it was over 100 µM; in [5], over 100 µM; in test [6], 55 µM. For the same compound, the TGI in test [7] was 49.7 µM; in [8], 76.2 µM; in test [9], 48.8 µM; in test [10], 66 µM.
Turning to `COc1ccc(CCN2CCC(Nc3nc4ccccc4n3Cc3ccc(F)cc3)CC2)cc1`, the GI50 in test [1] was 1.6 µM; in test [2] it was 0.46 µM; in [3], 1.51 µM; in test [4] it was 0.591 µM; in test [5], 1.72 µM; in test [6], 2.37 µM. Further, the GI50 in test [7] was 1.66 µM; in [8], 1.65 µM; in [9], 1.24 µM; in test [10] it was 1.82 µM. Moreover, the TGI in [1] was 2.96 µM; in test [2] it was 1.69 µM; in test [3], 3.16 µM; in test [4], 2.36 µM; in test [5] it was 3.15 µM; in [6], 4.91 µM. For the same compound, the TGI in test [7] turned out to be 3.07 µM; in test [8], 3.26 µM; in [9], 2.54 µM; in test [10] it was 3.38 µM.
For `COc1ccc2cc(Cn3cc[n+](Cc4ccc5ccccc5c4)c3)ccc2c1`, the GI50 is 1.96 µM in test [1]; 2.11 µM in [2]; 15.8 µM in test [3]; 1.76 µM in [4]; 1.77 µM in test [5]; 1.53 µM in test [6]. For the same compound, the GI50 in test [7] is 1.62 µM; in test [8], 4.95 µM; in test [9], 1.39 µM; in [10], 3.72 µM. The TGI in test [1] is 4.17 µM; in test [2], 5.28 µM; in [3] it was 32.4 µM; in test [4], 8.23 µM; in test [5], 4.21 µM; in test [6] it was 4.68 µM. For the same compound, the TGI in [7] turned out to be 4.01 µM; in [8], 21.9 µM; in [9], 4.19 µM; in test [10], 15 µM.
Turning to `CC(C(=O)O)/C(=C\c1ccc2c(c1)OCO2)C(=O)O` (stereo not given), the TGI was over 100 µM in test [1]; over 100 µM in [2]; over 100 µM in test [3]; over 82.2 µM in test [4]; over 100 µM in test [5]; over 100 µM in test [6]. The TGI in test [7], in test [8], in [9] and in test [10] was over 100 µM each time.
On to `CC(C)NC(=O)OCc1c(COC(=O)NC(C)C)c(-c2ccc(Cl)c(Cl)c2)n2c1CCC2`, for which the TGI in test [1] is over 100 µM; in test [2], 61.2 µM; in test [3], 71.3 µM; in [4] it was 64.1 µM; in test [5] it was 55.5 µM; in test [6], over 74.4 µM. For the same compound, the TGI in [7] is 69.9 µM; in test [8], 72.8 µM; in [9], 61.7 µM; in [10], 88.2 µM.
With `Clc1ccc(C2=NN[C@H](c3cn(-c4ccccc4)nc3-c3ccccc3)C2)cc1`, the GI50 in test [1] was 10.3 µM; in test [2], 11.4 µM; in [3], 16.5 µM; in test [4], 5.76 µM; in test [5], 7.67 µM; in test [6], 4.64 µM. The GI50 is 2.54 µM in [7], 3.36 µM in test [8], 2.15 µM in test [9] and 5.87 µM in test [10]. For the same compound, the TGI was 28.4 µM in test [1]; over 100 µM in test [2]; over 100 µM in test [3]; 55.8 µM in [4]; 32.1 µM in [5]; 28.4 µM in test [6]. For the same compound, the TGI in test [7] was 5.52 µM; in test [8] it was 13.2 µM; in test [9], 5.29 µM; in [10], 18.6 µM.
For `C=C(C)[C@@H]1CC[C@]2(C(=O)O)CC[C@]3(C)[C@H](CC[C@@H]4[C@@]5(C)C/C(=C/c6ccc(OC)cc6)C(=O)C(C)(C)[C@@H]5CC[C@]43C)[C@@H]12`, the GI50 is 1.89 µM in [1]; 2.1 µM in test [2]; 1.79 µM in test [3]; 3.09 µM in test [4]; 1.67 µM in [5]; 1.97 µM in test [6]. Moreover, the GI50 in test [7] is 1.69 µM; in test [8], 1.71 µM; in [9] it was 2.68 µM; in [10], 2.6 µM. The TGI in test [1] worked out at 4.34 µM; in [2], 5.73 µM; in [3], 4.4 µM; in [4], 10.2 µM; in [5], 3.9 µM; in test [6] it was 6.65 µM. Further, the TGI in test [7] was determined as 3.23 µM; in test [8], 4.45 µM; in test [9], 27.1 µM; in test [10], 20.7 µM.
With `CS(=O)(=O)c1ccc(Oc2cc(F)cc(C#N)c2)c2c1[C@H](O)C(F)(F)C2`, the GI50 in [1], in [2], in test [3], in [4], in test [5] and in test [6] was over 100 µM each time. Besides, the GI50 in [7], in [8], in test [9] and in test [10] was over 100 µM each time. Besides, the TGI in [1], in [2], in test [3], in [4], in [5] and in test [6] was over 100 µM each time. In addition, the TGI in test [7], in [8], in test [9] and in test [10] was over 100 µM in each case.
With `O=C(Nc1ccc(OCc2nnc(-c3ccccc3)o2)c(F)c1)Nc1ccc(Cl)c(C(F)(F)F)c1`, the GI50 in test [1] was 3.51 µM; in test [2], 2.58 µM; in test [3], 2.28 µM; in test [4] it was 2.33 µM; in [5] it was 2.97 µM; in test [6], 1.51 µM. Moreover, the GI50 was 2.06 µM in [7], 2.18 µM in test [8], 1.64 µM in test [9] and 2.62 µM in test [10]. In addition, the TGI in [1] was 13.1 µM; in [2] it was 7.83 µM; in test [3], 14.8 µM; in test [4], 9.9 µM; in test [5], 47 µM; in test [6], 4.87 µM. For the same compound, the TGI in test [7] was 7.25 µM; in test [8], 6.83 µM; in test [9], 5.08 µM; in test [10], 8.24 µM.
Turning to `C=CC[C@@H]1/C=C(\C)C[C@H](C)C[C@H](OC)[C@H]2O[C@@](O)(C(=O)C(=O)N3CCCC[C@H]3C(=O)O[C@H](/C(C)=C/C3CC[C@@H](O)[C@H](OC)C3)[C@H](C)[C@@H](O)CC1=O)[C@H](C)C[C@@H]2OC` (stereo not given in full), the GI50 was 10 µM in test [1]; 18.8 µM in [2]; 17.2 µM in [3]; 17.6 µM in test [4]; 14.9 µM in test [5]; 12.7 µM in test [6]. Moreover, the GI50 in test [7] was 14.2 µM; in [8], 14.6 µM; in [9], 12.3 µM; in test [10], 14.3 µM. For the same compound, the TGI turned out to be 27.2 µM in test [1]; 34.7 µM in [2]; 38.1 µM in test [3]; 33.5 µM in [4]; 28.6 µM in test [5]; 27 µM in test [6]. Also, the TGI is 27.2 µM in test [7], 31.9 µM in [8], 25.1 µM in test [9] and 27.8 µM in test [10].
As to `O=C(CN1C(=O)S/C(=C\C(Cl)=C\c2ccccc2)C1=O)NCCc1ccc(O)cc1`, the GI50 in test [1] is 2.03 µM; in test [2], 1.85 µM; in test [3], 1.52 µM; in test [4], 3.02 µM; in test [5], 1.65 µM; in test [6] it was 1.96 µM. Besides, the GI50 in test [7] is 1.69 µM; in test [8], 2.1 µM; in [9] it was 1.05 µM; in test [10], 2.42 µM. Further, the TGI stood at 4.9 µM in test [1]; 3.33 µM in test [2]; 4.56 µM in [3]; 12.3 µM in [4]; 4.11 µM in test [5]; 5.77 µM in test [6]. For the same compound, the TGI was 3.27 µM in test [7], 4.29 µM in test [8], 6.64 µM in test [9] and 5.02 µM in test [10].
On to `COc1cccc(Cn2c(-c3nonc3NC(C)=O)nc3ccccc32)c1`, for which the GI50 in test [1] is 8.79 µM; in [2] it was 5.83 µM; in test [3], 3.59 µM; in test [4] it was 3.28 µM; in [5] it was 4.02 µM; in [6], 2.95 µM. In addition, the GI50 was 6.56 µM in [7], 1.85 µM in test [8], 0.144 µM in test [9] and 2.65 µM in [10]. For the same compound, the TGI in test [1] was over 100 µM; in test [2], over 100 µM; in test [3], over 100 µM; in test [4] it was over 100 µM; in test [5], over 100 µM; in [6] it was 90.3 µM. The TGI in test [7] was over 100 µM; in test [8], 78.7 µM; in [9] it was 3.85 µM; in [10], 40.8 µM.
`Brc1ccccc1C=NC12CC3CC(CC(C3)C1)C2`: the TGI in test [1], in test [2], in test [3], in test [4], in test [5] and in test [6] was over 100 µM in each case. Also, the TGI in test [7], in test [8], in test [9] and in test [10] was over 100 µM throughout.
Take `OCC1OC2OC3C(CO)OC(OC4C(CO)OC(OC5C(CO)OC(OC6C(CO)OC(OC7C(CO)OC(OC1C(O)C2O)C(O)C7O)C(O)C6O)C(O)C5O)C(O)C4O)C(O)C3O` (stereo not given) (tested in a mixture with another compound): the TGI in test [1], in test [2], in test [3], in test [4], in test [5] and in test [6] was over 100 µM each time. Besides, the TGI in test [7], in test [8], in test [9] and in test [10] was over 100 µM in each case.
